This experiment deals with MV-4-11 cells. The experiment is described as follows: Gene expression microarray analysis (Affymetrix PrimeView) and GSEA. Further details: RFU PODN (11730768_x_at) / Fold change /veh PODN (11730768_x_at) / RFU LINC00158 (11744669_a_at) / Fold change /veh LINC00158 (11744669_a_at) / RFU DUSP10 (11751237_a_at) / Fold change /veh DUSP10 (11751237_a_at) / RFU ID3 (11757404_x_at) / Fold change /veh ID3 (11757404_x_at) / RFU PLEKHG5 (11737974_s_at) / Fold change /veh PLEKHG5 (11737974_s_at) / RFU LRRC4B (11730491_at) / Fold change /veh LRRC4B (11730491_at) / RFU GIMAP4 (11747438_a_at) / Fold change /veh GIMAP4 (11747438_a_at) / RFU KRT8 (11758183_x_at) / Fold change /veh KRT8 (11758183_x_at) / RFU CNN1 (11734310_a_at) / Fold change /veh CNN1 (11734310_a_at) / RFU VPS37D (11726825_at) / Fold change /veh VPS37D (11726825_at) / RFU C10orf10 (11716522_x_at) / Fold change /veh C10orf10 (11716522_x_at) / RFU KIR2DL2 /// KIR2DL4 /// KIR2DL5A /// KIR2DL5B /// KIR2DS1 /// KIR2DS2 /// KIR2DS3 /// KIR2DS4 /// KIR3DL3 /// KIR3DL3 /// KIR3DS1 (11738374_at) / Fold change /veh KIR2DL2 /// KIR2DL4 /// KIR2DL5A /// KIR2DL5B /// KIR2DS1 /// KIR2DS2 /// KIR2DS3 /// KIR2DS4 /// KIR3DL3 /// KIR3DL3 /// KIR3DS1 (11738374_at) / RFU C1QL1 (11718748_at) / Fold change /veh C1QL1 (11718748_at) / RFU TMPRSS4 (11747572_a_at) / Fold change /veh TMPRSS4 (11747572_a_at) / RFU HAMP (11756126_x_at) / Fold change /veh HAMP (11756126_x_at) / RFU RNFT2 (11725882_a_at) / Fold change /veh RNFT2 (11725882_a_at) / RFU NR4A2 (11747474_a_at) / Fold change /veh NR4A2 (11747474_a_at) / RFU ABCC12 (11746883_a_at) / Fold change /veh ABCC12 (11746883_a_at) / RFU TMEM136 (11760407_x_at) / Fold change /veh TMEM136 (11760407_x_at) / RFU CLDN22 /// WWC2 (11732394_at) / Fold change /veh CLDN22 /// WWC2 (11732394_at) / RFU HLA-DPB1 (11760878_x_at) / Fold change /veh HLA-DPB1 (11760878_x_at) / RFU SPINT1 (11716480_a_at) / Fold change /veh SPINT1 (11716480_a_at) / RFU GAP43 (11754022_s_at) / Fold change /veh GAP43 (11754022_s_at) / RFU A4GNT (11735810_at) / Fold change /veh A4GNT (11735810_at) / RFU PRB3 (11715151_x_at) / Fold change /veh PRB3 (11715151_x_at) / RFU TUBB4B (11761932_at) / Fold change /veh TUBB4B (11761932_at) / RFU CAPN14 (11732068_a_at) / Fold change /veh CAPN14 (11732068_a_at) / RFU TMCC2 (11721928_a_at) / Fold change /veh TMCC2 (11721928_a_at) / RFU IRGQ (11745062_a_at) / Fold change /veh IRGQ (11745062_a_at) / RFU FAM174B (11720279_a_at) / Fold change /veh FAM174B (11720279_a_at) / RFU TMPRSS4 (11748680_a_at) / Fold change /veh TMPRSS4 (11748680_a_at) / RFU FAM212B (11763350_a_at) / Fold change /veh FAM212B (11763350_a_at) / RFU PLEKHG5 (11743358_a_at) / Fold change /veh PLEKHG5 (11743358_a_at) / RFU ZSCAN30 (11745921_a_at) / Fold change /veh ZSCAN30 (11745921_a_at) / RFU CMKLR1 (11741424_a_at) / Fold change /veh CMKLR1 (11741424_a_at) / RFU LOC101060620 /// MAPK8IP1 (11723275_at) / Fold change /veh LOC101060620 /// MAPK8IP1 (11723275_at) / RFU SPTSSB (11747773_x_at) / Fold change /veh SPTSSB (11747773_x_at) / RFU PRSS12 (11739890_at) / Fold change /veh PRSS12 (11739890_at) / RFU BIN1 (11741810_x_at) / Fold change /veh BIN1 (11741810_x_at) / RFU WNT11 (11732464_a_at) / Fold change /veh WNT11 (11732464_a_at) / RFU C10orf10 (11716521_a_at) / Fold change /veh C10orf10 (11716521_a_at) / RFU C5orf56 (11738089_at) / Fold change /veh C5orf56 (11738089_at) / RFU CYB561 (11721691_x_at) / Fold change /veh CYB561 (11721691_x_at) / RFU ANKRD19P (11752326_a_at) / Fold change /veh ANKRD19P (11752326_a_at) / RFU OR2T12 /// OR2T33 /// OR2T8 (11738714_s_at) / Fold change /veh OR2T12 /// OR2T33 /// OR2T8 (11738714_s_at) / RFU VCAN (11748164_a_at) / Fold change /veh VCAN (11748164_a_at) / RFU JSRP1 (11732532_at) / Fold change /veh JSRP1 (11732532_at) / RFU KRTAP10-11 (11738290_x_at) / Fold change /veh KRTAP10-11 (11738290_x_at) / RFU MYO3A (11730013_a_at) / Fold change /veh MYO3A (11730013_a_at) / RFU EBF3 (11725865_a_at) / Fold change /veh EBF3 (11725865_a_at) / RFU CAMK2N1 (11719241_x_at) / Fold change /veh CAMK2N1 (11719241_x_at) / RFU C5orf56 (11738088_a_at) / Fold change /veh C5orf56 (11738088_a_at) / RFU OLFML3 (11715873_a_at) / Fold change /veh OLFML3 (11715873_a_at) / RFU LOC100653217 /// NTM (11731650_a_at) / Fold change /veh LOC100653217 /// NTM (11731650_a_at) / RFU MAPK11 (11762145_a_at) / Fold change /veh MAPK11 (11762145_a_at) / RFU FIZ1 (11724087_x_at) / Fold change /veh FIZ1 (11724087_x_at) / RFU OASL (11726364_x_at) / Fold change /veh OASL (11726364_x_at) / RFU SOX15 (11748057_x_at) / Fold change /veh SOX15 (11748057_x_at) / RFU CD79A (11719716_a_at) / Fold change /veh CD79A (11719716_a_at) / RFU HIST1H1D (11736915_at) / Fold change /veh HIST1H1D (11736915_at) / RFU CASKIN2 (11723855_a_at) / Fold change /veh CASKIN2 (11723855_a_at) / RFU LOC730098 (11760151_x_at) / Fold change /veh LOC730098 (11760151_x_at) / RFU OR4N2 (11742367_at) / Fold change /veh OR4N2 (11742367_at) / RFU PRRT2 (11749266_a_at) / Fold change /veh PRRT2 (11749266_a_at) / RFU SNX32 (11753110_a_at) / Fold change /veh SNX32 (11753110_a_at) / RFU CDHR5 (11726645_a_at) / Fold change /veh CDHR5 (11726645_a_at) / RFU RCAN1 (11760418_a_at) / Fold change /veh RCAN1 (11760418_a_at) / RFU FAM167A (11723789_a_at) / Fold change /veh FAM167A (11723789_a_at) / RFU FAM26E (11764081_at) / Fold change /veh FAM26E (11764081_at) / RFU ISYNA1 (11749810_s_at) / Fold change /veh ISYNA1 (11749810_s_at) / RFU ACY1 (11761880_at) / Fold change /veh ACY1 (11761880_at) / RFU 11764098_at / Fold change /veh 11764098_at / RFU SAMD14 (11745864_x_at) / Fold change /veh SAMD14 (11745864_x_at) / RFU NPB (11741838_a_at) / Fold change /veh NPB (11741838_a_at) / RFU TMPRSS6 (11731388_a_at) / Fold change /veh TMPRSS6 (11731388_a_at) / RFU KRTAP10-2 (11738614_at) / Fold change /veh KRTAP10-2 (11738614_at) / RFU ARHGAP8 /// PRR5-ARHGAP8 (11727945_x_at) / Fold change /veh ARHGAP8 /// PRR5-ARHGAP8 (11727945_x_at) / RFU KRTAP5-7 /// NADSYN1 (11734609_at) / Fold change /veh KRTAP5-7 /// NADSYN1 (11734609_at) / RFU RASL12 (11751679_a_at) / Fold change /veh RASL12 (11751679_a_at) / RFU CDKN2B (11736163_a_at) / Fold change /veh CDKN2B (11736163_a_at) / RFU PRF1 (11729649_at) / Fold change /veh PRF1 (11729649_at) / RFU, ZNF638 /// ZNF638-IT1 / Fold change vs veh, ZNF638 /// ZNF638-IT1 / RFU, PANK3 / Fold change vs veh, PANK3 / RFU, SH3YL1 / Fold change vs veh, SH3YL1 / RFU, ZEB2 / Fold change vs veh, ZEB2 / RFU, NRIP1 / Fold change vs veh, NRIP1 / RFU, PTTG1IP / Fold change vs veh, PTTG1IP / RFU, CAPN2 / Fold change vs veh, CAPN2 / RFU, MED14 / Fold change vs veh, MED14 / RFU, SNORA58 / Fold change vs veh, SNORA58 / RFU, C1orf63 / Fold change vs veh, C1orf63 / RFU, LRRFIP1 / Fold change vs veh, LRRFIP1 / RFU, NDUFAF7 / Fold change vs veh, NDUFAF7 / RFU, SLC12A2 / Fold change vs veh, SLC12A2 / RFU, IBTK / Fold change vs veh, IBTK / RFU, ESF1 / Fold change vs veh, ESF1 / Fold change vs veh, TMEM50B / RFU, TAOK1 / Fold change vs veh, TAOK1 / RFU, ACBD3 / Fold change vs veh, ACBD3 / RFU, TMA16 / Fold change vs veh, TMA16 / RFU, RWDD3 / Fold change vs veh, RWDD3 / RFU, BCAT1 / Fold change vs veh, BCAT1 / RFU, EDEM3 / Fold change vs veh, EDEM3 / RFU, TMEM33 / Fold change vs veh, TMEM33 / RFU, WDR75 / Fold change vs veh, WDR75 / RFU, AHCTF1 / Fold change vs veh, AHCTF1 / RFU, TFRC / Fold change vs veh, TFRC / RFU, ZDHHC17 / Fold change vs veh, ZDHHC17 / RFU, NOM1 / Fold change vs veh, NOM1 / RFU, ARL8B / Fold change vs veh, ARL8B / RFU, ZBTB11 / Fold change vs veh, ZBTB11 / RFU, TAMM41 / Fold change vs veh, TAMM41 / RFU, KIAA1704 /// LOC100996395 / Fold change vs veh, KIAA1704 /// LOC100996395 / RFU, ING1 / Fold change vs veh, ING1 / RFU, TRMT61B / Fold change vs veh, TRMT61B / RFU, FUBP3 / Fold change vs veh, FUBP3 / RFU, TP53 / Fold change vs veh, TP53 / RFU, TNKS2 / Fold change vs veh, TNKS2 / RFU, ZFP14 / Fold change vs veh, ZFP14 / RFU, ACTR2 / Fold change vs veh, ACTR2 / RFU, PPP3R1 / Fold change vs veh, PPP3R1 / RFU, PIK3R1 / Fold change vs veh, PIK3R1 / RFU, HNRNPA1 / Fold change vs veh, HNRNPA1 / RFU, RNF170 / Fold change vs veh, RNF170 / RFU, ZNF28 / Fold change vs veh, ZNF28 / RFU, RNGTT / Fold change vs veh, RNGTT / RFU, OGT / Fold change vs veh, OGT / RFU, BRD1 / Fold change vs veh, BRD1 / RFU, MARS / Fold change vs veh, MARS / RFU, ZNF655 / Fold change vs veh, ZNF655 / RFU, FAHD1 / Fold change vs veh, FAHD1 / RFU, BDP1 / Fold change vs veh, BDP1 / RFU, LRRCC1 / Fold change vs veh, LRRCC1 / RFU, ARID1A / Fold change vs veh, ARID1A / RFU, ZNF146 / Fold change vs veh, ZNF146 / RFU, ZNF330 / Fold change vs veh, ZNF330 / RFU, GPN3 / Fold change vs veh, GPN3 / RFU, C9orf123 / Fold change vs veh, C9orf123 / RFU, N4BP2L2 / Fold change vs veh, N4BP2L2 / RFU, ARFIP1 / Fold change vs veh, ARFIP1 / RFU, FAM179B / Fold change vs veh, FAM179B / RFU, BCL10 / Fold change vs veh, BCL10 / RFU, UHRF1BP1L / Fold change vs veh, UHRF1BP1L / RFU, BET1 / Fold change vs veh, BET1 / RFU, CNOT2 / Fold change vs veh, CNOT2 / RFU, ZNF268 / Fold change vs veh, ZNF268 / Fold change vs veh, ZNF507 / RFU, DGCR2 / Fold change vs veh, DGCR2 / RFU, WDSUB1 / Fold change vs veh, WDSUB1 / Fold change vs veh, HSP90B1 /// MIR3652 / RFU, ADSS / Fold change vs veh, ADSS / RFU, GK / Fold change vs veh, GK / RFU, ZNF148 / Fold change vs veh, ZNF148 / RFU, TAF9 / Fold change vs veh, TAF9 / RFU, SLC1A5 / Fold change vs veh, SLC1A5 / RFU, SLMO2 / Fold change vs veh, SLMO2 / RFU, ABCC4 / Fold change vs veh, ABCC4 / RFU, LOC101060439 /// RAP1B / Fold change vs veh, LOC101060439 /// RAP1B / RFU, RFX7 / Fold change vs veh, RFX7 / RFU, GTPBP10 / Fold change vs veh, GTPBP10 / RFU, CNEP1R1 / Fold change vs veh, CNEP1R1 / RFU, BIVM-ERCC5 /// ERCC5 / Fold change vs veh, BIVM-ERCC5 /// ERCC5 / RFU, ILF3 / Fold change vs veh, ILF3 / RFU 11762660_at / Fold change /veh 11762660_at / RFU VCAN (11757783_s_at) / Fold change /veh VCAN (11757783_s_at) / RFU DDX43 (11728927_at) / Fold change /veh DDX43 (11728927_at) / RFU KRT8 (11758188_x_at) / Fold change /veh KRT8 (11758188_x_at) / RFU NKD1 (11759106_at) / Fold change /veh NKD1 (11759106_at) / RFU SRD5A1 (11742802_a_at) / Fold change /veh SRD5A1 (11742802_a_at) / RFU TPSAB1 /// TPSB2 (11721975_s_at) / Fold change /veh TPSAB1 /// TPSB2 (11721975_s_at) / RFU GSTM3 (11746129_a_at) / Fold change /veh GSTM3 (11746129_a_at) / RFU IL23R (11737362_x_at) / Fold change /veh IL23R (11737362_x_at) / RFU TMEM51 (11727254_a_at) / Fold change /veh TMEM51 (11727254_a_at) / RFU PIWIL2 (11732686_x_at) / Fold change /veh PIWIL2 (11732686_x_at) / RFU ORM1 (11744905_x_at) / Fold change /veh ORM1 (11744905_x_at) / RFU CCDC152 (11743942_at) / Fold change /veh CCDC152 (11743942_at) / RFU ECM1 (11717891_a_at) / Fold change /veh ECM1 (11717891_a_at) / RFU IL23R (11748794_a_at) / Fold change /veh IL23R (11748794_a_at) / RFU TNFAIP8L3 (11732012_x_at) / Fold change /veh TNFAIP8L3 (11732012_x_at) / RFU MBOAT4 (11741988_at) / Fold change /veh MBOAT4 (11741988_at) / RFU 11764193_at / Fold change /veh 11764193_at / RFU TMEM53 (11763286_at) / Fold change /veh TMEM53 (11763286_at) / RFU MAGEB2 (11727129_at) / Fold change /veh MAGEB2 (11727129_at) / RFU TMEM200A (11744735_a_at) / Fold change /veh TMEM200A (11744735_a_at) / RFU CCDC152 (11751479_a_at) / Fold change /veh CCDC152 (11751479_a_at) / RFU FAM211A (11726209_a_at) / Fold change /veh FAM211A (11726209_a_at) / RFU RGS16 (11746705_a_at) / Fold change /veh RGS16 (11746705_a_at) / RFU VCAN (11755009_s_at) / Fold change /veh VCAN (11755009_s_at) / RFU RHOB (11743442_s_at) / Fold change /veh RHOB (11743442_s_at) / RFU RGS16 (11720943_a_at) / Fold change /veh RGS16 (11720943_a_at) / RFU RGS16 (11720944_at) / Fold change /veh RGS16 (11720944_at) / RFU, VPS4B / Fold change vs veh, VPS4B / RFU, CREB1 / Fold change vs veh, CREB1 / RFU, DNAJC13 / Fold change vs veh, DNAJC13 / RFU, GNAQ / Fold change vs veh, GNAQ / RFU, CDK5R1 / Fold change vs veh, CDK5R1 / RFU, ZRANB3 / Fold change vs veh, ZRANB3 / RFU, CUL4A / Fold change vs veh, CUL4A / RFU, CCNY / Fold change vs veh, CCNY / RFU, UFL1 / Fold change vs veh, UFL1 / RFU, COG3 / Fold change vs veh, COG3 / RFU, DIAPH2 / Fold change vs veh, DIAPH2 / RFU, SKA2 / Fold change vs veh, SKA2 / RFU, AFF3 / Fold change vs veh, AFF3 / RFU, LMF1 / Fold change vs veh, LMF1 / RFU, IPO11 / Fold change vs veh, IPO11 / RFU, DFFB / Fold change vs veh, DFFB / RFU, FOXP1 / Fold change vs veh, FOXP1 / RFU, CARD8 / Fold change vs veh, CARD8 / RFU, STRN3 / Fold change vs veh, STRN3 / RFU, ADK / Fold change vs veh, ADK / RFU, RASSF2 / Fold change vs veh, RASSF2 / RFU, WIPF1 / Fold change vs veh, WIPF1 / RFU, LARP1B / Fold change vs veh, LARP1B / RFU, RASA1 / Fold change vs veh, RASA1 / RFU, RB1 / Fold change vs veh, RB1 / RFU, PPFIA1 / Fold change vs veh, PPFIA1 / RFU, MAT2A / Fold change vs veh, MAT2A / RFU, CCT5 / Fold change vs veh, CCT5 / RFU, WDR92 / Fold change vs veh, WDR92 / RFU, CUX1 / Fold change vs veh, CUX1 / RFU, TTC7A / Fold change vs veh, TTC7A / RFU, TMEM135 / Fold change vs veh, TMEM135 / RFU, DEPTOR / Fold change vs veh, DEPTOR / RFU, CPM / Fold change vs veh, CPM / RFU, DNAJB6 / Fold change vs veh, DNAJB6 / RFU, CACNA2D3 / Fold change vs veh, CACNA2D3 / RFU, DTX4 / Fold change vs veh, DTX4 / RFU, TFCP2 / Fold change vs veh, TFCP2 / RFU, GMCL1 /// GMCL1P1 / Fold change vs veh, GMCL1 /// GMCL1P1 / RFU, AEBP2 / Fold change vs veh, AEBP2 / RFU, SNHG1 /// SNORD22 /// SNORD25 /// SNORD26 /// SNORD27 /// SNORD28 /// SNORD29 /// SNORD31 / Fold change vs veh, SNHG1 /// SNORD22 /// SNORD25 /// SNORD26 /// SNORD27 /// SNORD28 /// SNORD29 /// SNORD31 / Fold change (Aza/veh), C12orf56 (ProbeSet 11735607_a_at) / Fold change (ACY-1035/veh), C12orf56 (ProbeSet 11735607_a_at) / Fold change (Aza/veh), FGFR1OP (ProbeSet 11751329_s_at) / Fold change (ACY-1035/veh), FGFR1OP (ProbeSet 11751329_s_at) / Fold change (Aza/veh), VPS36 (ProbeSet 11739960_a_at) / Fold change (ACY-1035/veh), VPS36 (ProbeSet 11739960_a_at) / RFU SYPL1 (11715823_x_at) / Fold change /veh SYPL1 (11715823_x_at) / RFU IGFBP7 (11715501_s_at) / Fold change /veh IGFBP7 (11715501_s_at) / RFU REEP3 (11722064_at) / Fold change /veh REEP3 (11722064_at) / RFU IGLL1 (11728026_x_at) / Fold change /veh IGLL1 (11728026_x_at): dose or concentration left out as unconfirmed. It counts as cell-based, human. Particulars: ProbeSet 11725787_a_at; LIST B.

For the compound `Nc1ncn([C@@H]2O[C@H](CO)[C@@H](O)[C@H]2O)c(=O)n1` [azacitidine], the “RFU, TMA16” value turned out to be 152.00 RFU.

The values are drawn from publication PMC5218480 (PLoS ONE, 2017).
